Assay results reported in PMC12557437, “Research towards selective inhibition of the CLK3 kinase” (Beilstein Journal of Organic Chemistry, 2025).
Several values for one entry are separate records, joined by “and”; a condition that tells them apart may be missing. Identical values can stand only once. Entries after “also recorded” stand apart in the source; their conditions may differ.

How the values were obtained:
CLK1, CLK2, and CLK4 = assay: radiometric kinase assay, summary for the other CLKs; type: biochemical, mouse; details: Table 2; read-out: inhibition of CLK1, CLK2, and CLK4 (best value)
Excerpt: (§1) The results are reported in Table 2 and in Supporting Information File 1.

DYRK kinases = assay: radiometric kinase assay, summary for DYRK kinases; type: biochemical; details: DYRK1A, DYRK1B, DYRK2; listed as VS-77
Excerpt: (§2) Finally, in order to complete our profiling of VS-77, we then measured its activity against the DYRK 1A, DYRK1B and DYRK2 kinases and the results are reported in Table 3.
This point will be discussed in the molecular modeling part below.

Hs_DYRK1B = biological target: T1, Hs_DYRK1B (Homo sapiens, UniProt Q9Y463); assay: radiometric γ33P-ATP kinase assay (Eurofins); type: biochemical; details: 15 µM ATP; dose-response, points in duplicate
T1 construct: purchased Eurofins, UK
Description: as §2
(§3) 2- Kinase inhibition studies
(§4) Kinase enzymatic activities were assayed using both luminescent ADP detection assay
(§5) (ADP-GloTM assay kit, Promega, Madison, WI) or radiometric kinase assay. These
(§6) assays were performed using the protocols described in our previous publication. […]
(§7) 1.Brahmaiah, D.; Kanaka Durga Bhavani, A.; Aparna, P.; Sampath Kumar, N.; Solhi,
(§8) H.; Le Guevel, R.; Baratte, B.; Ruchaud, S.; Bach, S.; Singh Jadav, S.; Raji Reddy, C.;
(§9) Roisnel, T.; Mosset, P.; Levoin, N.; Grée, R. Bioorg.
(§10) R.; Baratte, B.; Robert, T.; Ruchaud, S.; Bach, S.; Jadav, S. S.; Reddy, C. R.; Mosset,
(§11) P.; Gouault, N.; Levoin, N.; Grée, R. Molecules 2022, 27, 6149. […]

Rn_DYRK1A [1] = biological target: T2, Rn_DYRK1A (Rattus norvegicus, UniProt Q63470); assay: radiometric γ33P-ATP kinase assay (Eurofins); type: biochemical; details: 15 µM ATP; dose-response, points in duplicate
Description: as §2, §3, §4, §5, §6, §7, §8, §9, §10, §11

Hs_DYRK1A = biological target: T3, Hs_DYRK1A (Homo sapiens, UniProt Q13627); assay: radiometric γ33P-ATP kinase assay (Eurofins); type: biochemical; details: 15 µM ATP; dose-response, points in duplicate
T3 construct: purchased Eurofins, UK
Description: as §2, §3, §4, §5, §6, §7, §8, §9, §10, §11

Hs_DYRK2 = biological target: T4, Hs_DYRK2 (Homo sapiens, UniProt Q92630); assay: radiometric γ33P-ATP kinase assay (Eurofins); type: biochemical; details: 15 µM ATP; dose-response, points in duplicate
T4 construct: purchased Eurofins, UK
Description: as §2, §3, §4, §5, §6, §7, §8, §9, §10, §11

Mm_CLK3 = Mm_CLK3 (Mus musculus, UniProt O35492); assay: radiometric γ33P-ATP kinase assay (Eurofins); type: biochemical; details: 15 µM ATP; dose-response, points in duplicate
Description: as §1, §3, §4, §5, §6, §7, §8, §9, §10, §11

Rn_DYRK1A [2] = biological target: T2, Rn_DYRK1A; assay: primary screening, short panel of mammalian kinases; type: biochemical; details: ATP 10 µM, means, n = 2, read-out: Residual kinase activity Rn_DYRK1A
Excerpt: (§12) Our molecules have been submitted first to a primary screening against a panel of eight disease-related kinases: five members of the CMGC (for CDK, MAPK, GSK3, and CLK) group (CDK5/p25, CDK9/CyclinT, GSK3β, CLK1 and DYRK1A), one CAMK (calmodulin/calcium regulated kinase PIM1), one CK1 (the casein kinase CK1ε), and haspin as a […] kinase.
(§13) Figure 4 Primary evaluation of the inhibition of the new quinazolines against a short panel of mammalian kinases. Residual kinase activities are expressed in % of maximal activity, i.e., measured in the absence of inhibitor but with an equivalent dose of DMSO (solvent of the tested compounds). ATP concentration used in the kinase assays was 10 µM (values are means, n = 2). Kinases are from human origin (Homo sapiens) except CLK1 (from Mus musculus) and DYRK1A (from Rattus norvegicus). […]

Hs_HASPIN = biological target: T5, Hs_HASPIN (Homo sapiens, UniProt Q8TF76); assay: as above; type: biochemical; details: ATP 10 µM, means, n = 2, read-out: Residual kinase activity Hs_HASPIN
T5 sequence (Q8TF76 1-798): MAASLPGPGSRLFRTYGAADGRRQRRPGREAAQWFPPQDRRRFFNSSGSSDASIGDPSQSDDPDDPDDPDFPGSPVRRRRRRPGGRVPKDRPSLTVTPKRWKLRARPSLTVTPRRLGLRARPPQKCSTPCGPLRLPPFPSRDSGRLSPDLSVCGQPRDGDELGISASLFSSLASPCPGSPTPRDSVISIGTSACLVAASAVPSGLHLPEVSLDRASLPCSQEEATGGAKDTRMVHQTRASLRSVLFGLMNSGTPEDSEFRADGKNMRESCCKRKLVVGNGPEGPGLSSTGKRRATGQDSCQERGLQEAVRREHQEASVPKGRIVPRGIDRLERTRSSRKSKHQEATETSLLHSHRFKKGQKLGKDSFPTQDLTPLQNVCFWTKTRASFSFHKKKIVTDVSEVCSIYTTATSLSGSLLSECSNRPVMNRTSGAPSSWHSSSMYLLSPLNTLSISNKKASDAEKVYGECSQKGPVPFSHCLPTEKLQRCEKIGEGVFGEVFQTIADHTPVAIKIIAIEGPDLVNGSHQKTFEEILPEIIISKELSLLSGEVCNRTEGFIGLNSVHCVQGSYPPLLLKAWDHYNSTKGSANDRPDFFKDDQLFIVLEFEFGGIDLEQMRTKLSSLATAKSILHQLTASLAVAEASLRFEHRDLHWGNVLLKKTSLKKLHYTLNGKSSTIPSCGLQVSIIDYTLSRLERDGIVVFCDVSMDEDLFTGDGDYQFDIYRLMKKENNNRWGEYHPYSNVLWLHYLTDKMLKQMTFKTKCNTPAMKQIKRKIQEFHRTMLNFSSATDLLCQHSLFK
Excerpt: as §12, §13

Hs_CK1ε = Hs_CK1ε (Homo sapiens, UniProt P49674); assay: as above; type: biochemical; details: ATP 10 µM, means, n = 2, read-out: Residual kinase activity Hs_CK1ε
Excerpt: as §12, §13

Mm_CLK1 = Mm_CLK1 (Mus musculus, UniProt P22518); assay: as above; type: biochemical
Excerpt: as §12, §13

Hs_CDK9/CyclinT = Hs_CDK9/CyclinT (Homo sapiens, UniProt P50750); assay: as above; type: biochemical; details: ATP 10 µM, means, n = 2, read-out: Residual kinase activity Hs_CDK9/CyclinT
Excerpt: as §12, §13

Hs_CDK5/p25 = Hs_CDK5/p25 (Homo sapiens, UniProt Q00535); assay: as above; type: biochemical; details: ATP 10 µM, means, n = 2, read-out: Residual kinase activity Hs_CDK5/p25
Excerpt: as §12, §13

Hs_GSK3β = Hs_GSK3β (Homo sapiens, UniProt P49841); assay: as above; type: biochemical; details: ATP 10 µM, means, n = 2, read-out: Residual kinase activity Hs_GSK3β
Excerpt: as §12, §13

Chain of Mm_CLK1 (P22518 whole entry): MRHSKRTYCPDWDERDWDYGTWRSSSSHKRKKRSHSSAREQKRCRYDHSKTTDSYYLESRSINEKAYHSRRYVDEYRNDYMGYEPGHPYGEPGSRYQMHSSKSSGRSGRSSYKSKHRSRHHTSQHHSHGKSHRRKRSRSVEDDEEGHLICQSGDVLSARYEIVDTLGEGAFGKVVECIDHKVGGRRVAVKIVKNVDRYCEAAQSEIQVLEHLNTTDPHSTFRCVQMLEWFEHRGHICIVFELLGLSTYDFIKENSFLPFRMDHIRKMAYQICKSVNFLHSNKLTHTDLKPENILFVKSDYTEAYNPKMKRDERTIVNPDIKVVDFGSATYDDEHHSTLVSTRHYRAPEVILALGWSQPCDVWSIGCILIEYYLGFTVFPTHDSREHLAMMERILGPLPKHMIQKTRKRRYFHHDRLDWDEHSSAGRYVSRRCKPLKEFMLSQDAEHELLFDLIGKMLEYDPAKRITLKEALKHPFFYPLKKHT
Chain of Hs_CK1ε (P49674 whole entry): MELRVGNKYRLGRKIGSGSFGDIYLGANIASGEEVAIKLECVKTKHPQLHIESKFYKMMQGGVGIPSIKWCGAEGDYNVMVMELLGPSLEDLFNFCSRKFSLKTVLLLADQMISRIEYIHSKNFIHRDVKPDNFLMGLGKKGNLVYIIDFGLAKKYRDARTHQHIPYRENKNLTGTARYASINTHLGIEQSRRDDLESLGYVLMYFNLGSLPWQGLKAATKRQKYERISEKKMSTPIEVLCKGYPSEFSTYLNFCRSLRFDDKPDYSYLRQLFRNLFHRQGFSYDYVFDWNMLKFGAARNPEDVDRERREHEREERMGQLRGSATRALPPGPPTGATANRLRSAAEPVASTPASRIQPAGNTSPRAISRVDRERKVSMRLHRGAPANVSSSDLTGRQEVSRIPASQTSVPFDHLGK
Chain of Mm_CLK3 (O35492 whole entry): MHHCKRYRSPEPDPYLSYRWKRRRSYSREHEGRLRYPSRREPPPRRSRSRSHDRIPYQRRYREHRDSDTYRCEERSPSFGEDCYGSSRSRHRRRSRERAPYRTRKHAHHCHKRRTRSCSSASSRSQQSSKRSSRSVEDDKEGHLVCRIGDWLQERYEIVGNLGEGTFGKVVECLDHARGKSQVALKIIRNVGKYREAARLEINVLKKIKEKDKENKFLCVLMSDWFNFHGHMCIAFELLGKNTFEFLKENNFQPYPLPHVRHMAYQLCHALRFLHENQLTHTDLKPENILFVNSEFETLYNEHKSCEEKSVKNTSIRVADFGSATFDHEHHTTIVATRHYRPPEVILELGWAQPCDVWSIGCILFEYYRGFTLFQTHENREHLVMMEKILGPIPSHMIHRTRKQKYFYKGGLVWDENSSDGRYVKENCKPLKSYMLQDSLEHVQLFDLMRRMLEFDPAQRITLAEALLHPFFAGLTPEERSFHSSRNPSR
Chain of Hs_CDK9/CyclinT (P50750 whole entry): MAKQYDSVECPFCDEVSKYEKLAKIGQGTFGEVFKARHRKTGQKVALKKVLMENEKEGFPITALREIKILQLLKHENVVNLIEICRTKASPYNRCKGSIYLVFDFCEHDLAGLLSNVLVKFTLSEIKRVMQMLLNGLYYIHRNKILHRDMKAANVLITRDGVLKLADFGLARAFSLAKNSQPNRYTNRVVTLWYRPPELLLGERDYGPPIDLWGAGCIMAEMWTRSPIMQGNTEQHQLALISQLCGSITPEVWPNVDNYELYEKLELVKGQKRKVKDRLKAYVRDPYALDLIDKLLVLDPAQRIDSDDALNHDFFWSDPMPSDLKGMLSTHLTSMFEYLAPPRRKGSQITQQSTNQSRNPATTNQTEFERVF
Chain of Hs_CDK9/CyclinT (O60563 whole entry partner): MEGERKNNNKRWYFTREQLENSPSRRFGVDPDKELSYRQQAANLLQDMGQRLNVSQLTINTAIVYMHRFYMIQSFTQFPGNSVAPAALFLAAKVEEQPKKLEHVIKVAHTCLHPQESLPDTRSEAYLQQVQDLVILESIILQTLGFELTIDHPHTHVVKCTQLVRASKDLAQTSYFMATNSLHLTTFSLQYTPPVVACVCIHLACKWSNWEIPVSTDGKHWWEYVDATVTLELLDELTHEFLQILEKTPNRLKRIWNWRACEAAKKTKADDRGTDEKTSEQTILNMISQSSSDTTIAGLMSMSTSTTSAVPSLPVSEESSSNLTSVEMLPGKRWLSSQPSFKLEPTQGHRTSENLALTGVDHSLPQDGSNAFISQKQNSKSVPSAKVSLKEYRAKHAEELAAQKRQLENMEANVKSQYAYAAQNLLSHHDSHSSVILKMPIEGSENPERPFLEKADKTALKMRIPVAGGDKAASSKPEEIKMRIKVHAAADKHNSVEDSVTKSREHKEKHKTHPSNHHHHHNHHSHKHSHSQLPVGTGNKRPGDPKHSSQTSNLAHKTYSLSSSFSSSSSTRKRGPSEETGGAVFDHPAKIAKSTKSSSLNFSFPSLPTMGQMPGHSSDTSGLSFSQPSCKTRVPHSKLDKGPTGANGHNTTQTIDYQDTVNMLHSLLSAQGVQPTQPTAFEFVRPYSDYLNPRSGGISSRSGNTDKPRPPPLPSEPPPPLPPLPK
Chain of Hs_CDK5/p25 (Q00535 whole entry): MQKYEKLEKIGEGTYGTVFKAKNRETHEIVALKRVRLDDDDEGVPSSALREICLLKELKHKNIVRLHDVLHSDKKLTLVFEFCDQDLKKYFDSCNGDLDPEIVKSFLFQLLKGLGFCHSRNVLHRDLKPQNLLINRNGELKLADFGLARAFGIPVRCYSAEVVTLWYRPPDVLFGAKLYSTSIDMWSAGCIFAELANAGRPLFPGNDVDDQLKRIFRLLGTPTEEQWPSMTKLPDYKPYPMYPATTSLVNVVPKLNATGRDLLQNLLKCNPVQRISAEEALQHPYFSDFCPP
Chain of Hs_CDK5/p25 (Q15078 99-307 partner limits assumed): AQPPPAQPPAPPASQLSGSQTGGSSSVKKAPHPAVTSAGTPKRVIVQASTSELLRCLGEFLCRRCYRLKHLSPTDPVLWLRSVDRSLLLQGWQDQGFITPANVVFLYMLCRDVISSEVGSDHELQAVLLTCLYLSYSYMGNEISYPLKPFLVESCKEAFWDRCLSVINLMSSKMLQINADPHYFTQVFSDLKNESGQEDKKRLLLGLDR
Chain of Hs_GSK3β (P49841 whole entry): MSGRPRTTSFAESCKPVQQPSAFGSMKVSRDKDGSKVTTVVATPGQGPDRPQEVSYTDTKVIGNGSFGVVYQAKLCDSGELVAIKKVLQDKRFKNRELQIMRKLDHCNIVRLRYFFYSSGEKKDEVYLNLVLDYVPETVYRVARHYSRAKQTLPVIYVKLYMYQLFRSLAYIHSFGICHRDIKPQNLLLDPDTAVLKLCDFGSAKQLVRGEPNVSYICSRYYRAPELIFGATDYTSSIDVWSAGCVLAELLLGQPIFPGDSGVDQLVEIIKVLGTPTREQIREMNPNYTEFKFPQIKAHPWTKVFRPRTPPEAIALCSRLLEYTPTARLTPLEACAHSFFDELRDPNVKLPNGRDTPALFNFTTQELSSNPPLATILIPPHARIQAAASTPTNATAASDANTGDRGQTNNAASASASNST
T1 sequence (Q9Y463 whole entry): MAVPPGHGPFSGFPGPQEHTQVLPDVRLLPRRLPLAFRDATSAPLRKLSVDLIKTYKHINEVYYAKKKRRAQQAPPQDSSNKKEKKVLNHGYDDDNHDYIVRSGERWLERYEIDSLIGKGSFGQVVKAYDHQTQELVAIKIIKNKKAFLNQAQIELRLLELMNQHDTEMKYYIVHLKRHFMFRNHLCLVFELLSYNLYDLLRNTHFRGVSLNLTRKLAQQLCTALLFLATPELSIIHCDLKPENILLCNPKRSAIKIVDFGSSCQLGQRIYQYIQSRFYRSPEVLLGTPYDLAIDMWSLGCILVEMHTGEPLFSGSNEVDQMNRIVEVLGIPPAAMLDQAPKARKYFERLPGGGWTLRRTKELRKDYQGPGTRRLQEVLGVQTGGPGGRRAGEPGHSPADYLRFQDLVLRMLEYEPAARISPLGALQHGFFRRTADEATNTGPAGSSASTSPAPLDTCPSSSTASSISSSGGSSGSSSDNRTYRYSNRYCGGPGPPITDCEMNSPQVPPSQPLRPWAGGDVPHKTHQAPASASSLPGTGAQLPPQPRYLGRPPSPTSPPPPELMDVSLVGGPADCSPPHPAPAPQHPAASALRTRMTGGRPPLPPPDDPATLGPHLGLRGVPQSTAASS
T4 sequence (Q92630 whole entry): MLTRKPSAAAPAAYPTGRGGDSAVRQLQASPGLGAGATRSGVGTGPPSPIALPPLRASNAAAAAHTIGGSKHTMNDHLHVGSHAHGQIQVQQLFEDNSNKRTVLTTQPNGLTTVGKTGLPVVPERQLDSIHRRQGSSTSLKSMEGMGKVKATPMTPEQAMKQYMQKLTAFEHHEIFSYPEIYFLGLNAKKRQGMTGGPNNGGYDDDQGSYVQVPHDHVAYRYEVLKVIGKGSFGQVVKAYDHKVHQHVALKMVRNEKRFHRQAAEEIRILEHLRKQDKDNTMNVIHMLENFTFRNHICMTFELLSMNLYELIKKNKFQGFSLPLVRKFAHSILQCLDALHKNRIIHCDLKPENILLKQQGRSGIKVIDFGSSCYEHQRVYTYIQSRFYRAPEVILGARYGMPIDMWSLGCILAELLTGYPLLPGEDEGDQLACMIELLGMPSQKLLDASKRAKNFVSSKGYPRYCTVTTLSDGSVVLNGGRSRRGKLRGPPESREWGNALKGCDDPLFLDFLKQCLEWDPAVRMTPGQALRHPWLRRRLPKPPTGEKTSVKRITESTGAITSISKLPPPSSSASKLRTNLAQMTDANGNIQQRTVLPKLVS

With `Cc1ccc(-n2cc(COc3cccc4cnc(Nc5cc(Cl)cc(-c6cccc(C(=O)O)c6)c5)nc34)nn2)c([N+](=O)[O-])c1` [Compound 13b] the IC50 (CLK1, CLK2, and CLK4) was 0.06 µM, the “inhibition of DYRK kinases” value (DYRK kinases) was “low, but significant inhibition; also recorded: weak inhibitor” and the IC50 (Hs_DYRK1B) was 4.6 µM. For the same molecule, the IC50 (Rn_DYRK1A [1]) was 14.8 µM, the IC50 (Hs_DYRK1A) was 5.31 µM and the IC50 (Hs_DYRK2) was 11.7 µM. The IC50 (Mm_CLK3) was 0.3 µM and 0.303 µM, the remaining activity at 1 µM (Rn_DYRK1A [2]; compound 1 μM) was 92% and the remaining activity at 10 µM (Rn_DYRK1A [2]; compound 10 μM) was 62%. The remaining activity at 1 µM (Hs_HASPIN; compound 1 μM) was 74%, the remaining activity at 10 µM (Hs_HASPIN; compound 10 μM) was 74% and the remaining activity at 1 µM (Hs_CK1ε; compound 1 μM) was no less than 100%. The remaining activity at 10 µM (Hs_CK1ε; compound 10 μM) was no less than 100%, the “activity against CLK1 in primary screening” value (Mm_CLK1; 1 and 10 µM) was “significant activity against CLK1” and the remaining activity at 1 µM (Mm_CLK1; compound 1 μM, ATP 10 µM, means, n = 2, read-out: Residual kinase activity Mm_CLK1) was 20%. For the same molecule, the remaining activity at 10 µM (Mm_CLK1; compound 10 μM, ATP 10 µM, means, n = 2, read-out: Residual kinase activity Mm_CLK1) was 11%, the remaining activity at 1 µM (Hs_CDK9/CyclinT; compound 1 μM) was 83% and the remaining activity at 10 µM (Hs_CDK9/CyclinT; compound 10 μM) was 47%. The remaining activity at 1 µM (Hs_CDK5/p25; compound 1 μM) was 92%, the remaining activity at 10 µM (Hs_CDK5/p25; compound 10 μM) was 37% and the remaining activity at 1 µM (Hs_GSK3β; compound 1 μM) was no less than 100%. For the same molecule, the remaining activity at 10 µM (Hs_GSK3β; compound 10 μM) was 43%.
